Assay type in all cases: biochemical
What all share (settings): 100 micromolar inhibitor concentration; 100 is no change

One assay deals with VEG-FR. The assay is described as follows: Kinase profiling VEG-FR. An excerpt: (§1) Any value less that 25 is considered to be highly significant inhibition.
In another assay the target is Src (Homo sapiens, UniProt P12931). The assay is described as follows: Kinase profiling Src.
Source text: as §1

A further assay addresses PIM1 (Homo sapiens, UniProt P11309). The assay can be described thus: Kinase profiling PIM1.
Source text: as §1

Another assay concerns the target MKK1 (Homo sapiens, UniProt Q02750). The assay can be described thus: Kinase profiling MKK1.
Source text: as §1

The next assay has as its target T1, IRAK4 (Homo sapiens, UniProt Q9NWZ3).
T1 sequence (Q9NWZ3 1-460): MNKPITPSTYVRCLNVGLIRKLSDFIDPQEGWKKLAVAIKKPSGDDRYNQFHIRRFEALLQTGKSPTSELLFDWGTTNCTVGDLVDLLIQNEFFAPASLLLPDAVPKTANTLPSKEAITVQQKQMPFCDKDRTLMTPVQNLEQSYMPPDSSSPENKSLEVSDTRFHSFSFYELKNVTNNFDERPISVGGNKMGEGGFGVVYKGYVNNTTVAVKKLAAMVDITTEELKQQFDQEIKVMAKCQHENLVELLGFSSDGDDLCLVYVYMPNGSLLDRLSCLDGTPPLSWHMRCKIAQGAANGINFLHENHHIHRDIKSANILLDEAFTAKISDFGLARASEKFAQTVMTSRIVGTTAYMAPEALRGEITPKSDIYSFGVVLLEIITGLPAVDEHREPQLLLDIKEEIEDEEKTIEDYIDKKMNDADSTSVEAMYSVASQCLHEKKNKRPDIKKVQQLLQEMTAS
The assay can be described thus: Kinase profiling IRAK4.
Source text: as §1

Another assay deals with p38a MAPK (Homo sapiens, UniProt Q16539). The assay can be described thus: Kinase profiling p38a MAPK.
Source text: as §1

For the next assay, the target named is PRK2 (Homo sapiens, UniProt Q16513). The assay is described as follows: Kinase profiling PRK2.
PRK2, sequence (Q16513 whole entry, species assumed): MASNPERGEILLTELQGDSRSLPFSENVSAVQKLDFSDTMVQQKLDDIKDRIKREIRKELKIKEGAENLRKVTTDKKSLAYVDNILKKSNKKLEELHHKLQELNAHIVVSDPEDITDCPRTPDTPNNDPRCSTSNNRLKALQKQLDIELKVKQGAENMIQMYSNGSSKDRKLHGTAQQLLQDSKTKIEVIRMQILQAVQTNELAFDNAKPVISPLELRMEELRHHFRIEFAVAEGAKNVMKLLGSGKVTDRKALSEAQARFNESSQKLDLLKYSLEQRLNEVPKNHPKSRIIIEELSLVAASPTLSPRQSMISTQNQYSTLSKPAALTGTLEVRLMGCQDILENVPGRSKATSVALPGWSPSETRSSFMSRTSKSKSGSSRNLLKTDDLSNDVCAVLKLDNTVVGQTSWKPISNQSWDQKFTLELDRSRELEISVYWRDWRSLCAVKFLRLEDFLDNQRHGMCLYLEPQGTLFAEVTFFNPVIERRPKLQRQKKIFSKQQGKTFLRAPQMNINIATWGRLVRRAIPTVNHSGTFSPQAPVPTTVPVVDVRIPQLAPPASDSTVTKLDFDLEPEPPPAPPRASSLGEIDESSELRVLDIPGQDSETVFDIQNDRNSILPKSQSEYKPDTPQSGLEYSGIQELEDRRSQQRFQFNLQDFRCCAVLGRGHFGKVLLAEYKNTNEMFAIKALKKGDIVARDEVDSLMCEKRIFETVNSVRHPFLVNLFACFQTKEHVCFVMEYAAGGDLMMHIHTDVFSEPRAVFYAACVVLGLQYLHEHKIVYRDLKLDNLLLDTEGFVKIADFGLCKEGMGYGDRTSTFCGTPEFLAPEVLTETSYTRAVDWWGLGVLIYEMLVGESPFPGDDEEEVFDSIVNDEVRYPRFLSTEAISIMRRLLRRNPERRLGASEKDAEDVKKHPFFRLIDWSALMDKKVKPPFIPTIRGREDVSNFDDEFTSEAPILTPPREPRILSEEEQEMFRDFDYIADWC
Source text: as §1

The next assay addresses JNK3 (Homo sapiens, UniProt P53779). The assay can be described thus: Kinase profiling JNK3.
Source text: as §1

Another assay addresses TrkA (Homo sapiens, UniProt P04629). The assay can be described thus: Kinase profiling TrkA.
Source text: as §1

For the next assay, the target named is BTK (Homo sapiens, UniProt Q06187). The assay can be described thus: Kinase profiling BTK.
BTK, sequence (Q06187 whole entry, species assumed): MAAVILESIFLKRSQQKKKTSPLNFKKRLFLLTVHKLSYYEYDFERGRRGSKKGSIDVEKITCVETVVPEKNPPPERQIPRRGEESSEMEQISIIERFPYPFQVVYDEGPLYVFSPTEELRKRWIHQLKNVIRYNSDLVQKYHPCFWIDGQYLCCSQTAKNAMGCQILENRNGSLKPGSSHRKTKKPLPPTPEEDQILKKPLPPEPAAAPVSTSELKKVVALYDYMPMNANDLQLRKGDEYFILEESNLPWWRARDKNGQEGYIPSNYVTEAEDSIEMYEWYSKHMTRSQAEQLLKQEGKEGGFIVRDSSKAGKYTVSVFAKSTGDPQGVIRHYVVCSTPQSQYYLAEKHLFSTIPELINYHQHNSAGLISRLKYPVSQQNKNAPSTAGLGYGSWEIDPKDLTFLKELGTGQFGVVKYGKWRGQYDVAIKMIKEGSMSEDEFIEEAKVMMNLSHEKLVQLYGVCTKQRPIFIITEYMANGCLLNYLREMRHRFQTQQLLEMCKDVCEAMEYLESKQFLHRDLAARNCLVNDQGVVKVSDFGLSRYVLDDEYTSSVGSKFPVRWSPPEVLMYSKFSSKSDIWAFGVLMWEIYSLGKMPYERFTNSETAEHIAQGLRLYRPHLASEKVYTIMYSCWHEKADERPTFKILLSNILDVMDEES
Source text: as §1

The target in another assay is MKK2 (Homo sapiens, UniProt P36507). The assay can be described thus: Kinase profiling MKK2.
MKK2, sequence (P36507 whole entry, species assumed): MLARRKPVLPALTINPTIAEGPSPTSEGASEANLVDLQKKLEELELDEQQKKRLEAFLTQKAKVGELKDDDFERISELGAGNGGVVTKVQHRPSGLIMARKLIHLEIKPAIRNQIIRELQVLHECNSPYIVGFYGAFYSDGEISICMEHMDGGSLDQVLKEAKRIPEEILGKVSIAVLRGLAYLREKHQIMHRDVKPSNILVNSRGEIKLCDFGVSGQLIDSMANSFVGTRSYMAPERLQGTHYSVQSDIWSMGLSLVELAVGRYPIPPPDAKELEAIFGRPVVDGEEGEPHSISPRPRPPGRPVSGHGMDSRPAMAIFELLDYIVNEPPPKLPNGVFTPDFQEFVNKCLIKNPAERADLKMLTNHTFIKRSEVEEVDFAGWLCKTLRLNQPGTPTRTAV
Source text: as §1

A further assay deals with SRPK1 (Homo sapiens, UniProt Q96SB4). The assay can be described thus: Kinase profiling SRPK1.
SRPK1, sequence (Q96SB4 whole entry, species assumed): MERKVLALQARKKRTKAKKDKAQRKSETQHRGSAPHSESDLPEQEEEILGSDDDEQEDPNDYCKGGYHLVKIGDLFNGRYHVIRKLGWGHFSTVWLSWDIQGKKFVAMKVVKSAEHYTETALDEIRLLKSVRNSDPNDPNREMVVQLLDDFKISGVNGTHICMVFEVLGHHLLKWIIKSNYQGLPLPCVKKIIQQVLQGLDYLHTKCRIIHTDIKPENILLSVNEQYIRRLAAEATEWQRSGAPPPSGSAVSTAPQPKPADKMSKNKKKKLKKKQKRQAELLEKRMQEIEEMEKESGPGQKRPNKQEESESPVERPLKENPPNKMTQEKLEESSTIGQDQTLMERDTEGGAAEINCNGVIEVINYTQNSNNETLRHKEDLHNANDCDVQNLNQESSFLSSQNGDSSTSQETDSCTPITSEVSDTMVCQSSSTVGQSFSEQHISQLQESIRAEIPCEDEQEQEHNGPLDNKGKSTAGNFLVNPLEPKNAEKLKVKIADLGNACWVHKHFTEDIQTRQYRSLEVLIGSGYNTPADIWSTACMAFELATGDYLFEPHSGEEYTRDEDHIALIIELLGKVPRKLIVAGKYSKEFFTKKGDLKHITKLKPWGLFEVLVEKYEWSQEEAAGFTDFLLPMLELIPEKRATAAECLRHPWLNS
Source text: as §1

The next assay concerns the target PKBa (Homo sapiens, UniProt P31749). The assay can be described thus: Kinase profiling PKBa.
Source text: as §1

Another assay addresses T2, SGK1 (Homo sapiens, UniProt O00141).
T2 sequence (O00141 1-431): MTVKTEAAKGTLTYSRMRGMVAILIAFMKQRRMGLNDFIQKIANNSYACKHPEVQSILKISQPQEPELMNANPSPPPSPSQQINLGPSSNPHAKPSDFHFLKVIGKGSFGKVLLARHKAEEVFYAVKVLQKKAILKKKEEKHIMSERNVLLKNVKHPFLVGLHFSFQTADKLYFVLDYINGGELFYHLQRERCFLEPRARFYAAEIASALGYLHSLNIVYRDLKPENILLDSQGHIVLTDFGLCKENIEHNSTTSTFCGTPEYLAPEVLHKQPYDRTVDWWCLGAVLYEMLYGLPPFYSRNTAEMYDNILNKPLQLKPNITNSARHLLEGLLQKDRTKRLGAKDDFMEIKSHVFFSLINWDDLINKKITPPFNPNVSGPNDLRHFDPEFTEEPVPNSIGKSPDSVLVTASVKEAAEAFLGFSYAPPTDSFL
The assay can be described thus: Kinase profiling SGK1.
Source text: as §1

Another assay has as its target T3, PDK1 (Homo sapiens, UniProt O15530).
T3 sequence (O15530 1-556): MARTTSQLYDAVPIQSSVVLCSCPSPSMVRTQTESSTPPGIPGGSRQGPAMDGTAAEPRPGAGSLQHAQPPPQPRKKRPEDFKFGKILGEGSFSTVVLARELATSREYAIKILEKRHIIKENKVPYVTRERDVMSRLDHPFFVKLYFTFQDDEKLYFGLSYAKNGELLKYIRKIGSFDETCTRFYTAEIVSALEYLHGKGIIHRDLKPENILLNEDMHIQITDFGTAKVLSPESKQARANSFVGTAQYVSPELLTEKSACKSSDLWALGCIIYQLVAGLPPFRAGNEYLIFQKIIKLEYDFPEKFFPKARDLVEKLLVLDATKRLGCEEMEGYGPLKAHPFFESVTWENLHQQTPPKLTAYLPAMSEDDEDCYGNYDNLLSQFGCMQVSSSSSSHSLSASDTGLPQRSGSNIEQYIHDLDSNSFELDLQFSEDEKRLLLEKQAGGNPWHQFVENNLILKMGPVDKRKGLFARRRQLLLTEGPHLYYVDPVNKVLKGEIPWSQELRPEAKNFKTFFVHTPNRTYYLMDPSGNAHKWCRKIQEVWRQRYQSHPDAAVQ
The assay is described as follows: Kinase profiling PDK1.
Source text: as §1

The target in the next assay is RIPK2 (Homo sapiens, UniProt O43353). The assay is described as follows: Kinase profiling RIPK2.
RIPK2, sequence (O43353 whole entry, species assumed): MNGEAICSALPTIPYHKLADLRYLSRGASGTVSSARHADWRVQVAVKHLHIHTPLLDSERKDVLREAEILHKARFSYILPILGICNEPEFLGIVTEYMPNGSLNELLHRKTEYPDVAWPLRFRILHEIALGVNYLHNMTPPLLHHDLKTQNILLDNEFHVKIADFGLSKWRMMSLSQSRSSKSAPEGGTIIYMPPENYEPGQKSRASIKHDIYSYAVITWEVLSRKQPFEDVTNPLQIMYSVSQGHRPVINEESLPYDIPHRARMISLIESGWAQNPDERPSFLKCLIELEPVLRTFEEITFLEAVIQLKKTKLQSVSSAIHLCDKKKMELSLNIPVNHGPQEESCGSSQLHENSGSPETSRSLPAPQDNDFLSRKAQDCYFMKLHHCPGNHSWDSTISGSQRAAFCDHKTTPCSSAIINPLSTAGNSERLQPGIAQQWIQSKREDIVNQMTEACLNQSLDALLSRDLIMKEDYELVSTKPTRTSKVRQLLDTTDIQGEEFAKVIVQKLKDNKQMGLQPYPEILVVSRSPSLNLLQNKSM
Source text: as §1

A further assay deals with p38b MAPK (Homo sapiens, UniProt Q15759). The assay is described as follows: Kinase profiling p38b MAPK.
Source text: as §1

A further assay deals with MARK3 (Homo sapiens, UniProt P27448). The assay can be described thus: Kinase profiling MARK3.
MARK3, sequence (P27448 whole entry, species assumed): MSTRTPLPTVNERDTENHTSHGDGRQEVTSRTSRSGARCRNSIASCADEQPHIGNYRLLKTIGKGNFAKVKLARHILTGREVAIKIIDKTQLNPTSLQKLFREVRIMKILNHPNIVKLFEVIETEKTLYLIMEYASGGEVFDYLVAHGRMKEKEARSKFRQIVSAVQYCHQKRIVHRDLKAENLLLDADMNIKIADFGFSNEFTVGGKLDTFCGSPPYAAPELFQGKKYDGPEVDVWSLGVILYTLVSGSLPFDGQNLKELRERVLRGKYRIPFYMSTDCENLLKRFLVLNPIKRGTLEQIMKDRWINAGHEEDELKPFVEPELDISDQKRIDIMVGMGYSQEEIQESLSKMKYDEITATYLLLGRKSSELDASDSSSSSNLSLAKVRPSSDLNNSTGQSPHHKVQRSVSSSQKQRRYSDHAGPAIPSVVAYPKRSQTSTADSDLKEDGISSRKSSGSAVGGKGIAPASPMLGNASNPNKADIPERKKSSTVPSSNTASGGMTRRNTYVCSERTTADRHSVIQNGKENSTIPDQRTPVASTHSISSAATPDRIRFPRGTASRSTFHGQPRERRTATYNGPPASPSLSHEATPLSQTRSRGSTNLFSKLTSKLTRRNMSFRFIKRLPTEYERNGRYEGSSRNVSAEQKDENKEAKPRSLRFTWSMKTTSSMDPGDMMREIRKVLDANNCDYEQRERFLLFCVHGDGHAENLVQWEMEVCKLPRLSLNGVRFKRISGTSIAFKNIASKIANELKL
Source text: as §1

The next assay concerns the target EF2K (Homo sapiens, UniProt O00418). The assay is described as follows: Kinase profiling EF2K.
Source text: as §1

PKBa, sequence (P31749 whole entry): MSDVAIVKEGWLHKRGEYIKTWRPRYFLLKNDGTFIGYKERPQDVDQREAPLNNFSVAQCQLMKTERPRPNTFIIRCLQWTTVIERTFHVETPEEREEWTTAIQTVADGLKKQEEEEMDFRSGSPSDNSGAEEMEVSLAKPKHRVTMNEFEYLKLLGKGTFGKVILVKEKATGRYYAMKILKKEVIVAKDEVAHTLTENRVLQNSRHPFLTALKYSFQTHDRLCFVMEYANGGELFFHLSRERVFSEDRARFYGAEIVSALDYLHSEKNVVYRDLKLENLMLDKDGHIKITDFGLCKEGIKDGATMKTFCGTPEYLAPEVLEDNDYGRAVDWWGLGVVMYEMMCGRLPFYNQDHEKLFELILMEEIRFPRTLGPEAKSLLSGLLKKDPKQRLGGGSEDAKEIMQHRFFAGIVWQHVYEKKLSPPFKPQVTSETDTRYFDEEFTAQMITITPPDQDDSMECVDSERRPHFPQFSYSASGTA
PIM1, sequence (P11309 whole entry, species assumed): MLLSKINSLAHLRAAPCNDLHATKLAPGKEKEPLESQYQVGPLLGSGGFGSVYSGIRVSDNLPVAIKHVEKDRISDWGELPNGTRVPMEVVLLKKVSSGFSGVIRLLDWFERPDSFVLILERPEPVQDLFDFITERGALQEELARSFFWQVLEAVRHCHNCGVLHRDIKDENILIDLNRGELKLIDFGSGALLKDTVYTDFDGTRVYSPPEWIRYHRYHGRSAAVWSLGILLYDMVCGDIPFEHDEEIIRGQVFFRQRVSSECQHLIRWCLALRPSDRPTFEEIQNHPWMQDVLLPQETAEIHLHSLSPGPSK

For `O=C(Nc1nc2ccc(O)cc2s1)c1ccncc1` [Compound 08-42], the “residual kinase activity, VEG-FR” value with VEG-FR was 20. Also, on Src, the “residual kinase activity, Src” value worked out at 62. Besides, the “residual kinase activity, PIM1” value on PIM1 is 59. Further, the “residual kinase activity, MKK1” value at MKK1 came out at 87. For the same compound, the “residual kinase activity, IRAK4” value on IRAK4 turned out to be 42. For the same compound, the “residual kinase activity, p38a MAPK” value on p38a MAPK was determined as 99. Also, the “residual kinase activity, PRK2” value at PRK2 was determined as 44. For the same compound, at JNK3, the “residual kinase activity, JNK3” value came to 65. For the same compound, the “residual kinase activity, TrkA” value on TrkA amounted to 81. Also, at BTK, the “residual kinase activity, BTK” value was 59. For the same compound, the “residual kinase activity, MKK2” value at MKK2 stood at 72. In addition, the “residual kinase activity, SRPK1” value at SRPK1 worked out at 19. For the same compound, the “residual kinase activity, PKBa” value on PKBa came to 90. Moreover, the “residual kinase activity, SGK1” value at SGK1 was determined as 60. Further, the “residual kinase activity, PDK1” value on PDK1 is listed as 83. Moreover, on RIPK2, the “residual kinase activity, RIPK2” value worked out at 30. In addition, at p38b MAPK, the “residual kinase activity, p38b MAPK” value was 86. On MARK3, the “residual kinase activity, MARK3” value worked out at 68. The “residual kinase activity, EF2K” value at EF2K was 79.

As to `O=C(Nc1nc2ccc(O)cc2s1)c1cccnc1` [Compound 08-44], in the assay on VEG-FR, the “residual kinase activity, VEG-FR” value is recorded as 21. At Src, the “residual kinase activity, Src” value is listed as 72. The “residual kinase activity, PIM1” value at PIM1 is recorded as 42. Moreover, at MKK1, the “residual kinase activity, MKK1” value amounted to 67. In addition, the “residual kinase activity, IRAK4” value at IRAK4 worked out at 32. In addition, the “residual kinase activity, p38a MAPK” value on p38a MAPK is 108. For the same compound, the “residual kinase activity, PRK2” value at PRK2 was found to be 46. For the same compound, the “residual kinase activity, JNK3” value on JNK3 is recorded as 64. Also, the “residual kinase activity, TrkA” value at TrkA was found to be 71. For the same compound, the “residual kinase activity, BTK” value on BTK is given as 54. For the same compound, at MKK2, the “residual kinase activity, MKK2” value was 48. Moreover, on SRPK1, the “residual kinase activity, SRPK1” value is listed as 16. Besides, the “residual kinase activity, PKBa” value at PKBa was found to be 83. In addition, the “residual kinase activity, SGK1” value on SGK1 amounted to 51. Also, the “residual kinase activity, PDK1” value on PDK1 was 77. Also, the “residual kinase activity, RIPK2” value at RIPK2 was found to be 21. In addition, the “residual kinase activity, p38b MAPK” value on p38b MAPK is recorded as 89. Further, the “residual kinase activity, MARK3” value at MARK3 was 65. In addition, the “residual kinase activity, EF2K” value at EF2K worked out at 67.

The record behind these values is US10231954B2, “Neurodegenerative therapies” (LYTIX BIOPHARMA AS, priority 2014, dated 2019).
